Target: T1, human V1a receptor (Homo sapiens, UniProt P37288)
T1 construct: expressed in transfected cells; host or cells: HEK293 cells, transiently transfected (membrane preparation)
Assay: human V1a receptor binding studies (3H-Vasopressin SPA, membranes of transfected HEK293 cells)
Details: 3H-Vasopressin displacement, HEK293 cell membranes, Ki by Cheng-Prussoff equation; read-out: pKi hV1a (converted)
Procedure: The human V1a receptor was cloned by RT-PCR from total human liver RNA. The coding sequence was subcloned in an expression vector after sequencing to confirm the identity of the amplified sequence. […] Cell membranes were prepared from HEK293 cells transiently transfected with the expression vector and grown in 20 liter fermenters with the following protocol.
50 g of cells are resuspended in 30 ml freshly prepared ice cold Lysis buffer (50 mM HEPES, 1 mM EDTA, 10 mM MgCl2 adjusted to pH=7.4+complete cocktail of protease inhibitor (Roche Diagnostics)). Homogenized with Polytron for 1 min and sonicated on ice for 2×2 minutes at 80% intensity (Vibracell sonicator). The preparation is centrifuged 20 min at 500 g at 4° C., the pellet is discarded and the supernatant centrifuged 1 hour at 43,000 g at 4° C. (19,000 rpm). The pellet is resuspended in 12.5 ml Lysis buffer+12.5 ml Sucrose 20% and homogenized using a Polytron for 1-2 min. The protein concentration is determined by the Bradford method and aliquots are stored at −80° C. until use. For binding studies 60 mg Yttrium silicate SPA beads (Amersham) are mixed with an aliquot of membrane in binding buffer (50 mM Tris, 120 mM NaCl, 5 mM KCl, 2 mM CaCl2, 10 mM MgCl2) for 15 minutes with mixing. 50 μl of bead/membrane mixture is then added to each well of a 96 well plate, followed by 50 μl of 4 nM 3H-Vasopressin (American Radiolabeled Chemicals). For total binding measurement 100 μl of binding buffer are added to the respective wells, for non-specific binding 100 μl of […] cold vasopressin and for compound testing 100 μl of a serial dilution of each compound in 2% DMSO. The plate is incubated 1 h at room temperature, centrifuged 1 min at 1000 g and counted on a Packard Top-Count. Non-specific binding counts are subtracted from each well and data is normalized to the maximum specific binding set at 100%. To calculate an IC 50 the curve is fitted using a non-linear regression model (XLfit) and the Ki is calculated using the Cheng-Prussoff equation.

T1 sequence (P37288 whole entry): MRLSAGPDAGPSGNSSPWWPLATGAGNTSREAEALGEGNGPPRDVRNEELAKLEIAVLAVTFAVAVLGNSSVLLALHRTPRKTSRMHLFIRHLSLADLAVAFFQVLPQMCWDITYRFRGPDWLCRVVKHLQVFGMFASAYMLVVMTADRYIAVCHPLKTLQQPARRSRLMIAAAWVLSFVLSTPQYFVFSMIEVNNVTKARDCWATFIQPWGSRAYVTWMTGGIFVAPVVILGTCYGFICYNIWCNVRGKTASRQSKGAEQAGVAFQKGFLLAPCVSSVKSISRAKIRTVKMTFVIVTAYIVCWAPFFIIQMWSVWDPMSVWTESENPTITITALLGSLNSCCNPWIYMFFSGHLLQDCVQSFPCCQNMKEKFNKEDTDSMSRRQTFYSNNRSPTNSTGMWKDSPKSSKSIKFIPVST

SMILES | Ki [nM]
CC(C)O[C@H]1CC[C@H](c2nnc3n2-c2ccc(Cl)cc2COC3)CC1 [Example 1, trans-8-Chloro-1-(4-isopropoxy-cyclohexyl)-4H,6H-5-oxa-2,3,10b-triaza-benzo[e]azulene] | 19.1
CCC(C)O[C@H]1CC[C@H](c2nnc3n2-c2ccc(Cl)cc2COC3)CC1 (stereo partly drawn) [Example 2, trans-1-(4-sec-Butoxy-cyclohexyl)-8-chloro-4H,6H-5-oxa-2,3,10b-triaza-benzo[e]azulene] | 4.37
Clc1ccc2c(c1)COCc1nnc([C@H]3CC[C@H](OC4CCCC4)CC3)n1-2 [Example 3, trans-8-Chloro-1-(4-cyclopentyloxy-cyclohexyl)-4H,6H-5-oxa-2,3,10b-triaza-benzo[e]azulene] | 0.407

Second part, the compound after the results:

Ki [nM] | SMILES
1.32 | Clc1ccc2c(c1)COCc1nnc([C@H]3CC[C@H](Oc4ccccc4)CC3)n1-2 [Example 4, trans-8-Chloro-1-(4-phenoxy-cyclohexyl)-4H,6H-5-oxa-2,3,10b-triaza-benzo[e]azulene]
2.34 | Clc1ccc2c(c1)COCc1nnc([C@H]3CC[C@H](Oc4ccccn4)CC3)n1-2 [Example 5, trans-8-Chloro-1-[4-(pyridin-2-yloxy)-cyclohexyl]-4H,6H-5-oxa-2,3,10b-triaza-benzo[e]azulene]
26.9 | Clc1ccc2c(c1)COCc1nnc([C@H]3CC[C@H](Oc4cnccn4)CC3)n1-2 [Example 6, trans-8-Chloro-1-[4-(pyrazin-2-yloxy)-cyclohexyl]-4H,6H-5-oxa-2,3,10b-triaza-benzo[e]azulene]

Source: patent US8828989B2, “Oxy-cyclohexyl-4H,6H-5-oxa-2,3,10b-triaza-benzo[E]azulenes as V1A antagonists” (Hoffmann-La Roche Inc., priority 2011, dated 2014)
